Measurements taken from US20240251790A1 (priority 2021, published 2024).
Several values for one entry are separate records, joined by “and”; a condition that tells them apart may be missing. Equal values may be shown once. Read-outs that look alike come from different tables or passages of the source.

Experiments:
[1] = test system: coliforms (ECC); assay type: cell-based
[2] = test system: barley; test: Germination of treated barley kernels (percentage of living kernels); assay type: in vivo; conditions: 500 ppm PAA
Procedure: The grains treated with PAA as described in Example 4 were further tested for germination. After the treatment, the PAA solution was decanted and kernels were immediately transferred into Petri dishes and placed between two wet paper towels for germination tests. The treated kernels were not washed with water. The germination continued in a water bath at room temperature for 2 days. Germination was evaluated by the percentage of living kernels in a sample of barley.

[3] = test system: yeast and mold (YM); assay type: cell-based; conditions: 500 ppm PAA
[4] = test system: all microbial populations tested (APC, ECC, YM); test: Micro tests on barley grains, all microbial populations tested (APC, ECC, YM); assay type: cell-based
Procedure: The treatment was performed at 20° C. as follows: 100 ml of PAA solution at 500 ppm (unadjusted or adjusted to pH=9.0) were applied to 10.0 g of wet barley grains. Solutions with the grains were then shaken for 30 seconds and then the acid solution was neutralized by addition of 0.5 g sodium thiosulfate. The solutions were then used to evaluate effect of PAA treatment on total microbial count (APC), coliforms (ECC), and yeast and mold (YM). Control samples were treated with DI water.
Each sample was diluted serially into Butterfield's phosphate buffer, and the dilutions were plated on Petrifilm™ (3M, Minneapolis, MN) plates specific for different types of microorganisms. The plates were incubated for 48 hours at 35° C. for APC, and for 5 days at 25° C. for YM. For ECC, the incubation was done at 35° C. for 24 hours, then coliforms were counted, and incubation continued for an additional 24 hours at 35° C. Grown colonies on plates were counted and expressed in CFU/10 g barley grains for each treatment. The tests were done in duplicates.

[5] = test system: total microbial count (APC); assay type: cell-based
[6] = test system: Fusarium graminearum 46779; assay type: cell-based
[7] = germinated barley treated before kilning, 500 ppm PAA, pH = 3, 30 s, testing after germination
[8] = germinated barley treated before kilning, 500 ppm PAA, pH = 3, 30 s, testing after kilning, * = complete kill
[9] = germinated barley treated before kilning, 500 ppm PAA, pH = 9, 30 s, testing after germination
[10] = germinated barley treated before kilning, 500 ppm PAA, pH = 9, 30 s, testing after kilning, * = complete kill
[11] = germinated barley, 500 ppm PAA, pH = 3.1, 30 seconds
[12] = germinated barley, 500 ppm PAA, pH = 9.0, 30 seconds
[13] = steeped barley, 500 ppm PAA, pH = 3.1 (unadjusted), 30 seconds, 20° C.
[14] = steeped barley, 500 ppm PAA, pH = 6.5, 5 s
[15] = steeped barley, 500 ppm PAA, pH = 6.5, 30 s
[16] = steeped barley, 500 ppm PAA, pH = 9, 5 s
[17] = steeped barley, 500 ppm PAA, pH = 9, 30 s
[18] = steeped barley, 500 ppm PAA, pH = 9.0, 30 seconds, 20° C.
[19] = steeped barley, 500 ppm PAA, pH = 9, 10 min
[20] = steeped barley, 500 ppm PAA, pH = 10.0, 5 s
[21] = steeped barley, 500 ppm PAA, pH = 10.0, 30 s
[22] = steeped barley, 500 ppm PAA, unadjusted (pH=3.1), 5 s
[23] = steeped barley, 500 ppm PAA, unadjusted (pH=3.1), 30 s
[24] = test on day 2, treated once, day 2 (after steeping), 500 ppm PAA, 2:1, 10 minutes, 20° C.
[25] = test on day 4, treated once, day 2, 500 ppm PAA, 10 minutes
[26] = test on day 4, treated twice, days 2 and 4, 500 ppm PAA, 10 min each
[27] = germinated barley treated before kilning, pH = 3, 30 s, testing after germination, * = complete kill
[28] = germinated barley treated before kilning, pH = 3, 30 s, testing after kilning, * = complete kill
[29] = germinated barley treated before kilning, pH = 9, 30 s, testing after germination
[30] = germinated barley treated before kilning, pH = 9, 30 s, testing after kilning, * = complete kill
[31] = germinated barley, pH = 3.1, 30 seconds
[32] = germinated barley, pH = 9.0, 30 seconds
[33] = steeped barley, pH = 3.1 (unadjusted), 30 seconds, 20° C.
[34] = steeped barley, pH = 9.0, 30 seconds, 20° C.
[35] = steeped barley, pH = 10.0, 30 s
[36] = steeped barley, unadjusted (pH=3.1), 5 s
[37] = steeped barley, unadjusted (pH=3.1), 30 s
[38] = germinated barley treated before kilning, 500 ppm PAA, pH = 3, 30 s, testing after kilning
[39] = germinated barley treated before kilning, 500 ppm PAA, pH = 9, 30 s, testing after kilning

CC(=O)OO [PAA, peracetic acid]
ECC Log10 [1, 7]: 6.59 Log10 | ECC Log10 Reduction [1, 7]: 1.67 Log10 | ECC Log10 [1, 8]: 0.00* Log10 | ECC Log10 Reduction [1, 8]: 3.25* Log10 | ECC Log10 [1, 9]: 6.68 Log10 | ECC Log10 Reduction [1, 9]: 1.58 Log10 | ECC Log10 [1, 10]: 0.00* Log10 | ECC Log10 Reduction [1, 10]: 3.25* Log10 | ECC Log10 (CFU/10 g barley grains) [1, 11]: 6.83 Log10 | ECC Log10 Reduction [1, 11]: 1.16 Log10 | ECC Log10 (CFU/10 g barley grains) [1, 12]: 7.39 Log10 | ECC Log10 Reduction [1, 12]: 0.60 Log10 | ECC Log10 (CFU/10 g barley grains) [1, 13]: 5.99 Log10 | ECC Log10 Reduction [1, 13]: 1.91 Log10 | ECC Log10 [1, 14]: 5.94 Log10 | ECC Log10 Reduction [1, 14]: 1.66 Log10 | ECC Log10 [1, 15]: 5.26 Log10 | ECC Log10 Reduction [1, 15]: 2.34 Log10 | ECC Log10 [1, 16]: 5.48 Log10 | ECC Log10 Reduction [1, 16]: 1.73 Log10 | ECC Log10 [1, 17]: 4.78 Log10 | ECC Log10 Reduction [1, 17]: 2.43 Log10 | ECC Log10 (CFU/10 g barley grains) [1, 18]: 5.79 Log10 | ECC Log10 Reduction [1, 18]: 2.11 Log10 | ECC Log10 [1, 19]: 3.63 Log10 | ECC Log10 Reduction [1, 19]: 3.57 Log10 | ECC Log10 [1, 20]: 6.49 Log10 | ECC Log10 Reduction [1, 20]: 1.11 Log10 | ECC Log10 [1, 21]: 5.27 Log10 | ECC Log10 Reduction [1, 21]: 2.33 Log10 | ECC Log10 [1, 22]: 4.60 Log10 | ECC Log10 Reduction [1, 22]: 2.60 Log10 | ECC Log10 [1, 23]: 2.60 Log10 | ECC Log10 Reduction [1, 23]: 4.60 Log10 | ECC Log10 [1, 24]: 0.00 Log10 | ECC Log10 Reduction [1, 24]: 4.36 Log10 | ECC Log10 [1, 25]: 5.41 Log10 | ECC Log10 Reduction [1, 25]: 1.8 Log10 and 1.82 Log10 | ECC Log10 [1, 26]: 4.95 Log10 | ECC Log10 Reduction [1, 26]: 2.28 Log10 | kill of ECC microorganisms ([1]; unadjusted PAA 500 ppm, treated after germination): complete kill | Germination ([2]; pH 3.1, 30 s, germination 2 days): 100% | Germination ([2]; pH 3.1, 5 min, germination 2 days): 100% | Germination ([2]; pH 3.1, 10 min, germination 2 days): 94% | Germination ([2]; pH 3.1, 30 min, germination 2 days): 73% | Germination ([2]; pH 9.0, 30 s, germination 2 days): 100% | Germination ([2]; pH 9.0, 5 min, germination 2 days): 100% | Germination ([2]; pH 9.0, 10 min, germination 2 days): 100% | Germination ([2]; pH 9.0, 30 min, germination 2 days): 99% | Germination ([2]; pH 9.0, longer treatment times (10 min and 30 min)): ~100% | effect on germination ([2]; short treatment times (0.5-5 min)): practically did not affect the germination | effect on germination ([2]; unadjusted (acidic) solution, longer treatment times (10 min and especially 30 min)): suppressed germination | YM Log10 [3, 27]: 0.00* Log10 | YM Log10 Reduction [3, 27]: 4.67* Log10 | YM Log10 [3, 28]: 0.00* Log10 | YM Log10 Reduction [3, 28]: 2.00* Log10 | YM Log10 [3, 29]: 2.92 Log10 | YM Log10 Reduction [3, 29]: 1.75 Log10 | YM Log10 [3, 30]: 0.00* Log10 | YM Log10 Reduction [3, 30]: 2.00* Log10 | YM Log10 (CFU/10 g barley grains) [3, 31]: 3.60 Log10 | YM Log10 Reduction [3, 31]: 1.86 Log10 | YM Log10 (CFU/10 g barley grains) [3, 32]: 3.83 Log10 | YM Log10 Reduction [3, 32]: 1.63 Log10 | YM Log10 (CFU/10 g barley grains) [3, 33]: 3.84 Log10 | YM Log10 Reduction [3, 33]: 1.75 Log10 | YM Log10 ([3]; steeped barley, pH = 6.5, 5 s): 1.30 Log10 | YM Log10 Reduction ([3]; steeped barley, pH = 6.5, 5 s): 2.46 Log10 | YM Log10 ([3]; steeped barley, pH = 6.5, 30 s): 0.00 Log10 | YM Log10 Reduction ([3]; steeped barley, pH = 6.5, 30 s): 3.76 Log10 | YM Log10 ([3]; steeped barley, pH = 9, 5 s): 3.86 Log10 | YM Log10 Reduction ([3]; steeped barley, pH = 9, 5 s): 0.62 Log10 | YM Log10 ([3]; steeped barley, pH = 9, 30 s): 2.60 Log10 | YM Log10 Reduction ([3]; steeped barley, pH = 9, 30 s): 1.88 Log10 | YM Log10 (CFU/10 g barley grains) [3, 34]: 4.06 Log10 | YM Log10 Reduction [3, 34]: 1.53 Log10 | YM Log10 ([3]; steeped barley, pH = 9, 10 min): 2.80 Log10 | YM Log10 Reduction ([3]; steeped barley, pH = 9, 10 min): 1.79 Log10 | YM Log10 ([3]; steeped barley, pH = 10.0, 5 s): 3.52 Log10 | YM Log10 Reduction ([3]; steeped barley, pH = 10.0, 5 s): 0.24 Log10 | YM Log10 [3, 35]: 3.16 Log10 | YM Log10 Reduction [3, 35]: 0.60 Log10 | YM Log10 [3, 36]: 2.95 Log10 | YM Log10 Reduction [3, 36]: 1.53 Log10 | YM Log10 [3, 37]: 0.00 Log10 | YM Log10 Reduction [3, 37]: 4.48 Log10 | reduction of all microorganisms ([4]; germinated barley, unadjusted PAA 500 ppm, 30 seconds (Example 2)): 1-2 Log10 | reduction ([4]; steeped barley, 500 ppm PAA at higher pH (pH=9.0), given sufficient time (Example 4)): 2-3 Log10 | reduction of all microorganisms ([4]; steeped barley, 500 ppm PAA, 30 s (Example 4)): 2.0-4.5 Log10 | reduction in all microbial populations tested ([4]; steeped barley, 500 ppm PAA, 30 seconds, pH 3.1 and 9.0 (Example 1)): 1.5-2.1 Log10 | APC Log10 [5, 7]: 7.22 Log10 | APC Log10 Reduction [5, 7]: 1.47 Log10 | APC Log10 [5, 38]: 3.78 Log10 | APC Log10 Reduction [5, 38]: 2.59 Log10 | APC Log10 [5, 9]: 7.86 Log10 | APC Log10 Reduction [5, 9]: 0.83 Log10 | APC Log10 [5, 39]: 5.14 Log10 | APC Log10 Reduction [5, 39]: 1.23 Log10 | APC Log10 (CFU/10 g barley grains) [5, 11]: 7.23 Log10 | APC Log10 Reduction [5, 11]: 1.98 Log10 | APC Log10 (CFU/10 g barley grains) [5, 12]: 8.01 Log10 | APC Log10 Reduction [5, 12]: 1.20 Log10 | APC Log10 (CFU/10 g barley grains) [5, 13]: 6.99 Log10 | APC Log10 Reduction [5, 13]: 2.16 Log10 | APC Log10 [5, 14]: 7.34 Log10 | APC Log10 Reduction [5, 14]: 1.73 Log10 | APC Log10 [5, 15]: 6.51 Log10 | APC Log10 Reduction [5, 15]: 2.56 Log10 | APC Log10 [5, 16]: 7.97 Log10 | APC Log10 Reduction [5, 16]: 0.51 Log10 | APC Log10 [5, 17]: 6.72 Log10 | APC Log10 Reduction [5, 17]: 1.75 Log10 | APC Log10 (CFU/10 g barley grains) [5, 18]: 7.34 Log10 | APC Log10 Reduction [5, 18]: 1.81 Log10 | APC Log10 [5, 19]: 6.25 Log10 | APC Log10 Reduction [5, 19]: 2.23 Log10 | APC Log10 [5, 20]: 8.28 Log10 | APC Log10 Reduction [5, 20]: 0.79 Log10 | APC Log10 [5, 21]: 7.35 Log10 | APC Log10 Reduction [5, 21]: 1.72 Log10 | APC Log10 [5, 22]: 8.19 Log10 | APC Log10 Reduction [5, 22]: 0.29 Log10 | APC Log10 [5, 23]: 6.54 Log10 | APC Log10 Reduction [5, 23]: 1.93 Log10 | APC Log10 [5, 24]: 3.84 Log10 | APC Log10 Reduction [5, 24]: 4.30 Log10 | APC Log10 [5, 25]: 6.72 Log10 | APC Log10 Reduction [5, 25]: 2.5 Log10 and 2.52 Log10 | APC Log10 [5, 26]: 5.78 Log10 | APC Log10 Reduction [5, 26]: 3.46 Log10 | kill of Fusarium [6]: complete kill
